How the values were obtained:
Type in all cases: in vivo
Meloidogyne incognita = assay: Meloidogyne test; details: active compound concentration 20 ppm; lettuce in sand
Method: To prepare a suitable active compound preparation, 1 part by weight of active compound is mixed with the stated amounts of solvent and emulsifier and the concentrate is diluted to the desired concentration with water. Containers are filled with sand, active compound solution, Meloidogyne incognita egg/larval suspension and lettuce seeds. The lettuce seeds germinate and the plantlets develop. The galls develop on the roots. After the desired time, the nematicidal efficacy is determined in % with reference to gall formation. 100% means that no galls were found; 0% means that the number of galls on the treated plants corresponds to that of the untreated control.

Sugar beet [1] = assay: Post-emergence test, Sugar beet; details: 125 g ai/ha, after three weeks
Method: (§1) To prepare a suitable active compound preparation, 1 part by weight of active compound is mixed with the stated amount of solvent, the stated amount of emulsifier is added, and the concentrate is diluted with water to the desired concentration. Test plants which have a height of 5 to 15 cm are sprayed with the active compound preparation in such a way that the active compound quantities desired in each case are applied per unit area. The concentration of the spray mixture is chosen such that the active compound quantities desired in each case are applied in 1000 l of water/ha. After three weeks, the degree of damage to the plants is scored in % damage in comparison with the development of the untreated control. The figures denote: • 0%=no effect (like untreated control) • 100%=total destruction

Sugar beet [2] = assay: Pre-emergence test, Sugar beet; details: 125 g ai/ha, after three weeks
Method: (§2) To prepare a suitable active compound preparation, 1 part by weight of active compound is mixed with the stated amount of solvent, the stated amount of emulsifier is added, and the concentrate is diluted with water to the desired concentration. Seeds of the test plants are sown in normal soil. After approximately 24 hours, the soil is sprayed with the active compound preparation in such a way that the active compound quantities desired in each case are applied per unit area. The concentration of the spray mixture is chosen such that the active compound quantities desired in each case are applied in 1000 l of water/ha. After three weeks, the degree of damage to the plants is scored in % damage in comparison with the development of the untreated control. The figures denote: • 0%=no effect (like untreated control) • 100%=total destruction

Lolium = assay: Pre-emergence test, Lolium; details: 125 g ai/ha, after three weeks
Method: as §2

Matricaria = assay: Pre-emergence test, Matricaria; details: 125 g ai/ha, after three weeks
Method: as §2

Setaria [3] = assay: Post-emergence test, Setaria; details: 125 g ai/ha, after three weeks
Method: as §1

Setaria [4] = assay: Pre-emergence test, Setaria; details: 125 g ai/ha, after three weeks
Method: as §2

Wheat = assay: Post-emergence test, Wheat; details: 125 g ai/ha, after three weeks
Method: as §1

Digitaria [5] = assay: Pre-emergence test, Digitaria; details: 125 g ai/ha, after three weeks
Method: as §2

Alopecurus = assay: Post-emergence test, Alopecurus; details: 125 g ai/ha, after three weeks
Method: as §1

[6] = tested on: two-spotted spider mite (Tetranychus urticae); assay: Tetranychus test (OP resistant/immersion treatment); details: 100 ppm; bean plants immersed
Method: To prepare a suitable active compound preparation, 1 part by weight of active compound is mixed with the stated amounts of solvent and emulsifier and the concentrate is diluted to the desired concentration with emulsifier-containing water. Bean plants (Phaseolus vulgaris) which are severely infested by all stages of the two-spotted spider mite (Tetranychus urticae) are immersed into an active compound preparation of the desired concentration. After the desired time, the efficacy is determined in %. 100% means that all of the spider mites have been destroyed; 0% means that none of the spider mites have been destroyed.

[7] = tested on: fall armyworm caterpillars (Spodoptera frugiperda); assay: Spodoptera frugiperda test; details: 500 ppm; after 7 days; cabbage leaves immersed
Method: (§3) To prepare a suitable active compound preparation, 1 part by weight of active compound is mixed with the stated amounts of solvent and emulsifier and the concentrate is diluted to the desired concentration with emulsifier-containing water. Cabbage leaves (Brassica oleracea) are treated by immersing in the active compound preparation of the desired concentration and populated with larvae of the fall armyworm caterpillars (Spodoptera frugiperda) while the leaves are still moist. After the desired time, the destruction rate is determined in %. 100% means that all the caterpillars have been destroyed; 0% means that none of the caterpillars have been destroyed.

Avena fatua = assay: Post-emergence test, Avena fatua; details: 125 g ai/ha, after three weeks
Method: as §1

Digitaria [8] = assay: Post-emergence test, Digitaria; details: 125 g ai/ha, after three weeks
Method: as §1

[9] = tested on: green peach aphid (Myzus persicae); assay: Myzus test; details: 500 ppm; after 6 days; cabbage leaves immersed
Method: To prepare a suitable active compound preparation, 1 part by weight of active compound is mixed with the stated amounts of solvent and emulsifier and the concentrate is diluted to the desired concentration with emulsifier-containing water. Cabbage leaves (Brassica oleracea) which are severely infested by the green peach aphid (Myzus persicae) are treated by immersing into the active compound preparation of the desired concentration. After the desired time, the destruction rate is determined in %. 100% means that all of the aphids have been destroyed; 0% means that none of the aphids have been destroyed.

[10] = tested on: larvae of the mustard beetle (Phaedon cochleariae); assay: Phaedon larvae test; details: after 7 days, cabbage leaves immersed
Method: as §3, with “mustard beetle (Phaedon cochleariae)” for “fall armyworm caterpillars (Spodoptera frugiperda)”, “beetle larvae” for “caterpillars”

Row | Compound | destruction rate (nematicidal efficacy with reference to gall formation) (Meloidogyne incognita) [%] | degree of damage to the plants (% damage), Sugar beet (Sugar beet [1]) [%] | degree of damage to the plants (% damage), Sugar beet (Sugar beet [2]) [%] | degree of damage to the plants (% damage), Lolium (Lolium) [%] | degree of damage to the plants (% damage), Matricaria (Matricaria) [%] | degree of damage to the plants (% damage), Setaria (Setaria [3]) [%] | degree of damage to the plants (% damage), Setaria (Setaria [4]) [%] | degree of damage to the plants (% damage), Wheat (Wheat) [%] | degree of damage to the plants (% damage), Digitaria (Digitaria [5]) [%] | degree of damage to the plants (% damage), Alopecurus (Alopecurus) [%] | destruction rate (efficacy) [6] [%] | destruction rate [7] [%] | degree of damage to the plants (% damage), Avena fatua (Avena fatua) [%] | degree of damage to the plants (% damage), Digitaria (Digitaria [8]) [%] | destruction rate [9] [%] | destruction rate ([10]; 500 ppm) [%] | destruction rate ([10]; 1000 ppm) [%]
1 | CCOC(=O)OC1=C(c2nc(-c3ccc(Cl)cc3)sc2C)C(=O)NC(C)(C)C1 [Example I-1-c-1] | 100 |  |  |  |  |  |  |  |  |  |  |  |  |  |  |  | 
2 | Cc1sc(-c2ccc(Cl)cc2)nc1C1=C(O)C(C)(C)C(C)(C)OC1=O [Example I-2-a-1] | 100 | 0 | 0 | 100 | 95 | 100 | 100 | 10 | 100 | 90 | 100 | 100 | 90 | 95 | 90 | 100 | 
3 | Cc1sc(-c2ccc(Cl)cc2)nc1C1=C(O)CC(C)(C)NC1=O [Example I-1-a-1] |  |  |  |  |  |  |  |  |  |  | 98 |  |  |  |  |  | 100

— US7566731B2, “Hetaryl substituted homotetramic and homotetronic acids and their use thereof as pesticides” (Bayer CropScience AG, priority 2001, dated 2009)
